Test results from US20240132559A1, “COMPOSITIONS AND METHODS FOR MODULATING MYC EXPRESSION” (FLAGSHIP PIONEERING INNOVATIONS V, INC., priority 2020, published 2024).
Entries after “also recorded” stand apart in the source; their conditions may differ.

Tests used:
subcutaneous H460 tumors = assay: H460 subcutaneous tumor model in nude mice; type: in vivo, mouse; conditions: 50 mg/kg daily
Method: Disease was induced in nude mice by the implantation of subcutaneous H460 tumor cells into the left flank. Treatment was initiated when mean tumor volume reached approximately 100-150 mm^3. Mice were divided into treatment groups so that mean tumor volume in each group were approximately equal. Tumors were treated with PBS (vehicle), sorafenib (standard of care), non-coding RNA formulated in MC3 LNPs, or ZF9-MQ1 mRNA formulated in MC3 LNPs. PBS, Non-coding RNA (SEQ ID NO: 198) LNP and ZF9-MQ1 LNP were dosed at 3 mg/kg administered every five days. Sorafenib was dosed daily at 50 mg/kg. The length and width of tumors were measured twice weekly. Tumor volumes were calculated as (width^2×length)/2.

SKHEP1 and Hep 3B cells = assay: IC50 of sorafenib or JQ1 in combination with bi-cistronic ZF9-MQ1_ZF3-KRAB; type: cell-based, human; conditions: for IC50 of sorafenib: in combination with 0.1 ug/ml bi-cistronic ZF9-MQ1_ZF3-KRAB; for IC50: Homo sapiens
Hep 3B cells = assay: Sorafenib dose response viability with bi-cistronic ZF9-MQ1_ZF3-KRAB (CellTiter-GLO); type: cell-based; conditions: Homo sapiens, Hep3B, 72 h
Method: (§1) In this example, the effect of bi-cistronic ZF9-MQ1_ZF3-KRAB on the small molecule sorafenib (multi-kinase inhibitor) efficacy in HCC cell lines was evaluated. Sorafenib is used as a standard of care in HCC and high MYC levels can predict sorafenib resistance. It was hypothesized that bi-cistronic ZF9-MQ1_ZF3-KRAB may re-sensitize HCC to sorafenib through its downregulation of MYC. Dose response assays were utilized to evaluate if bi-cistronic ZF9-MQ1_ZF3-KRAB treatment could decrease the IC50 of sorafenib.
(§2) To evaluate potential synergy between bi-cistronic ZF9-MQ1_ZF3-KRAB and sorafenib, Hep 3B or SK-HEP-1 cells were plated in 96 well plates at 10,000 cells per well. Cells were then treated with sorafenib at a dose range between 0.1 and 25 μM, with serial dilution of 1:2. Lipid mix carrying bi-cistronic ZF9-MQ1_ZF3-KRAB was then added to a subset of the wells at a dose of 0.1 or 0.6 μg/mL. A set of cells was treated with sorafenib alone to use as control. Following 72-hour treatment, cells were lysed with the CellTiter-GLO® reagent and luminescence was quantified using the Glo Max. Relative cell viability was calculated by averaging the untreated values and dividing each experimental luciferase value by that average.

SK-HEP-1 cells = assay: as above; type: cell-based; conditions: Homo sapiens, SK-HEP1, 72 h, SKHEP-1, 72-hour
Method: as §1, §2

[1] = system: HCC cells (HepG2, Hep3B, SKHEP1, SNU-182, SNU-449); assay: Cell viability (CellTiter-GLO) of human HCC cell lines; type: cell-based; conditions: 72 and 168 hours
Excerpt: This example describes down-regulating MYC1 expression by targeting KRAB effector fused to zinc finger domains to the upstream region directly adjacent to the CTCF motif (GD-28859). In this example, zinc finger-directed KRAB effectors (ZF-KRAB effectors) were designed to bind the anchor site at the DNA region targeted by GD-28859 (FIG. 4A). 7 constructs (dCas-KRAB/GD-59, ZF1-KRAB, ZF2-KRAB, ZF3-KRAB, ZF4-KRAB, ZF5-KRAB, and ZF6-KRAB) were designed and screened in human HCC models (HepG2, Hep3B, SKHEP1). Negative controls for these experiments included untreated cells and dCas9-KRAB/GD-28859 was used as positive control. RNA was isolated from two independent experiments, each done in biological triplicate, using the Rneasy® Plus 96-well Kit (Qiagen) following the Manufacture's protocol. RNA samples were retrotranscribed to cDNA using LunaScript® RT SuperMix Kit (NEB) and analyzed by quantitative PCR (qPCR) (in technical triplicates) using a MYC specific Taqman primer/probe set assay with the TaqMan™ Fast Advanced Master Mix (Thermo Scientific). MYC expression was quantified relative to the expression of GAPDH reference genes using the ΔΔCt method, the untreated and dCas9(no-effector) samples were used as calibrators. Cell viability was assessed by ATP quantification using CellTiter-GLO® Luminescent Cell Viability Assay (Promega #G9241). […]

MYC = MYC mRNA expression by qPCR in human HCC cell lines after LNP transfection; type: cell-based; conditions: HepG2, Hep3B and SKHEP1
Method: In this example, dCas9-KRAB mRNA was delivered to human HCC cell lines (HepG2, Hep3B and SKHEP1) with individual sgRNA (Table 1 and FIG. 1A-B) targeting it to the CTCF motif (GD-28616), CTCF “anchor” site (GD-28859), or the MYC promoter (GD-28617). The effector mRNA and sgRNA were co-delivered using LNP delivery with SSOP. For controls, both (1) dCas9 (no effector) combined with sgRNA, and (2) untreated cells were used to assess changes. HCC cells were seeded in 96-well plates in growth media (5000 cell/well). LNP formulations (2-2.5 ug/ml) were then added to the cells to transfect the mRNA and sgRNA. All treatments were done in biological triplicate. Timepoints ranging from 24-168 hours were assessed for MYC expression and cell viability. RNA was isolated from four independent experiments using the RNeasy® plus 96-well Kit (Qiagen) following the Manufacture's protocol. RNA samples were retrotranscribed to cDNA using LunaScript® RT SuperMix Kit (NEB) and analyzed by quantitative PCR (qPCR) (in technical triplicates) using a MYC specific TaqMan™ primer/probe set assay with the TaqMan™ Fast Advanced Master Mix (Thermo Scientific). MYC expression was quantified relative to the expression of GAPDH reference genes using the ΔΔCt method. The untreated and dCas9(no-effector) samples were used as calibrators. […]

[2] = system: MYC super-enhancer and MYC promoter region; assay: Targeted bisulfite sequencing of super-enhancer and promoter regions in NCI-H2009; type: cell-based, human; conditions: guides 29833 and 29914, 72 hours
Method: The CRISPR-dCas9 system was modified by tethering it to epigenetic repressor: MQ1. These molecules modulate transcriptional repression methylating the CpG nucleotides of the DNA. The effector mRNA and super-enhancer guide RNAs (29833 and 29914) were co-delivered using LNP delivery with SSOP with mRNA delivery of GFP or a dCAS9-no effector construct (dCas9-NE) as negative controls. NCSLC cell line NCI-H2009 was seeded in a 6 well plates in growth media (˜100000 cells/well). LNP formulations (2.5 ug/ml) were then added to the cells to transfect the effector mRNA/guide RNA then incubated for 72 hours. DNA was isolated using Lucigen QuickExtract™ DNA extraction kit and methylated regions were determined using targeted bisulfite sequencing of the promoter and super-enhancer regions.

[3] = bi-cistronic ZF9-MQ1_ZF3-KRAB 0 μg/ml
[4] = bi-cistronic ZF9-MQ1_ZF3-KRAB 0.1 μg/ml
[5] = bi-cistronic ZF9-MQ1_ZF3-KRAB 0.6 μg/ml

| IC50 of sorafenib (SKHEP1 and Hep 3B cells; Hep 3B) | IC50 (SKHEP1 and Hep 3B cells; Hep3B, Hep 3B, in combination with 0.6 ug/ml bi-cistronic ZF9-MQ1_ZF3-KRAB) | IC50 (SKHEP1 and Hep 3B cells; Hep3B, Hep 3B, sorafenib without bi-cistronic ZF9-MQ1_ZF3-KRAB) | IC50 (SKHEP1 and Hep 3B cells; SK-HEP1, SKHEP1, in combination with 0.6 ug/ml bi-cistronic ZF9-MQ1_ZF3-KRAB) | IC50 (SKHEP1 and Hep 3B cells; SK-HEP1, SKHEP1, sorafenib without bi-cistronic ZF9-MQ1_ZF3-KRAB) | IC50 of sorafenib (SKHEP1 and Hep 3B cells; SKHEP1) | IC50 (SK-HEP-1 cells; [3]) | IC50 (SK-HEP-1 cells; [4]) | IC50 (SK-HEP-1 cells; [5]) | Compound | average tumor volume at the study termination (subcutaneous H460 tumors) | IC50 (Hep 3B cells; [3]) | IC50 (Hep 3B cells; [4]) | IC50 (Hep 3B cells; [5]) | effect on viability (in words) ([1]; HepG2 and Hep3B) | effect on viability (in words) ([1]; SK-HEP-1) | MYC mRNA down-regulation (MYC; 72 hours) | MYC expression down-regulation (in words) (MYC) | methylation of the distal promoter region [2] |
| --- | --- | --- | --- | --- | --- | --- | --- | --- | --- | --- | --- | --- | --- | --- | --- | --- | --- | --- |
| did not change significantly | 2.9 µM | 4.4 µM | 10.7 µM | 12.3 µM | did not change significantly | 12.3 µM | 12.3 µM | 10.7 µM | CNC(=O)c1cc(Oc2ccc(NC(=O)Nc3ccc(Cl)c(C(F)(F)F)c3)cc2)ccn1 [sorafenib] | 752 mm^3 | 4.4 µM | 4.25 µM | 2.9 µM |  |  |  |  |  |
|  |  |  |  |  |  |  |  |  | dCas9-MQ1: dCas9 fused to MQ1, SEQ ID NO: 35 |  |  |  |  | dramatically decreased viability | minimally affected | 50-90% | significantly greater effect on MYC expression than any of the human dCas9-DNMTs examined or dCas9-KRAB; also recorded: down-regulated MYC expression | about 50% |
